The test system of assay [1] is Chlorella sp. ATCC 7516. Nature of the assay: Algal efficacy testing of dry paint films (modified ASTM 5589, 6-well plates). The assay is classed as cell-based. Particulars: 3 weeks; for % inhibition: at the total conc, vs blank; for Total conc: total biocide conc in paint reported for pass level ≧75% inhibition (max tested 5000 ppm if no pass). Here is the method:
(§1) KATHON™ 893T (100% OIT) and ROCIMA™ 200 (20% DCOIT) were post added to a white, acrylic/silicone based outdoor paint free of biocides to give a total active ingredient concentration of 10000 and 1000 ppm respectively. These paints were then diluted with an antimicrobial free acrylic/silicone based paint and mixed to prepare targeted concentrations of antimicrobial compounds for the testing. The total biocides concentrations tested were 125, 250, 500, 1000, 2000 and 5000 ppm. After biocides addition or dilution, the paints were mixed 90 seconds with the horse power shaker (AXEL 75M3372/Agitateur SO-10MI) until uniformity was achieved. Paints containing different antimicrobial compounds at the same levels were mixed together in order to obtain the desired ratio of antimicrobial compounds. After one day, the paints were applied to Schleicher & Schuell filter paper at 280 μm wet film thickness and dried for 3 days at room temperature avoiding direct exposure to sunlight. Square discs (1.6 cm×1.6 cm) were cut out from each panel and were used as the substrate for algal efficacy tests. This sample size allowed for an agar border when the sample disc was placed into the well of the test plate.
(§2) Algal efficacy was tested according to modified ASTM 5589 which is a standard accelerated test method for determining resistance of various coatings (including paints) to algal defacement. To accommodate for high-throughput screening, this method was scaled down from petri dishes to 6-well plates. Bold Modified Basal Freshwater Nutrient Solution was used as growth medium. A single coated filter paper coupon was placed with a pair of sterile forceps at the center of the agar plug (on top) with the painted surface facing upwards. Algal inoculums were prepared by mixing equal concentrations (1×10^6 cfu/ml) and equal volumes of exponentially growing algae cultures.
(§3) Each well that contains a tested coupon was inoculated with 1750 μl of algal suspensions (1×10^6 cfu/ml) making sure that the whole surface (paint film as well as the agar surrounding it) was evenly covered. The plates were incubated at room temp (21° C.-25° C.) with cyclic exposure to light and dark phases, for a period of three weeks.
(§4) At the end of the three week incubation period, the samples were scored for percent inhibition regarding visible algal growth compared to the blank sample (0% inhibition).
(§5) The SI is calculated based on F. C.
(§6) SI value of <1 in the formula indicates a synergism of the blended biocides exists.
(§7) The minimal targeted inhibition was set at 75%, meaning a coupon with at least 75% algal growth inhibition was considered as a pass.

In assay [2] the test system is Stichococcus bacillaris SAG 379-1a / CCAP 379/1a. Described as above. The format is cell-based. Particulars: 3 weeks; for % inhibition: at the total conc, vs blank; for Total conc: total biocide conc in paint reported for pass level ≧75% inhibition (max tested 5000 ppm if no pass). The procedure:
as §1, §2, §3, §4, §5, §6, §7

Here are results for three molecules from US9301528B2 (Rohm and Haas Company, priority 2012, dated 2016).

Structures are written as SMILES.

As a reminder, the % inhibition is the relative decrease from the control value, in per cent. As for `CCCCCCCCn1sc(Cl)c(Cl)c1=O` [DCOIT, 4,5-dichloro-2-n-octyl-4-isothiazolin-3-one], in assay [1] (DCOIT/Lenacil table), the “% inhibition” value is listed as 85% and the Total conc is reported as 1000 ppm. In addition, in assay [2] (DCOIT/Lenacil table), the “% inhibition” value is 95% and the Total conc is reported as 1000 ppm.
In the case of `CCCCCCCCn1sccc1=O` [OIT, 2-n-octyl-4-isothiazolin-3-one], in assay [1] (OIT/Lenacil table), the “% inhibition” value came out at 95% and the Total conc was 1000 ppm. Further, in assay [2] (OIT/Lenacil table), the “% inhibition” value is 90% and the Total conc is 500 ppm.
Turning to `O=c1[nH]c2c(c(=O)n1C1CCCCC1)CCC2` [Lenacil, 3-cyclohexyl-1,5,6,7-tetrahydrocyclopentapyrimidine-2,4(3H)-dione], the “% inhibition” value was 30% in assay [1] (DCOIT/Lenacil table), 45% in assay [1] (OIT/Lenacil table), 70% in assay [2] (DCOIT/Lenacil table) and 30% in assay [2] (OIT/Lenacil table). Besides, the Total conc in assay [1] (DCOIT/Lenacil table), in assay [1] (OIT/Lenacil table), in assay [2] (DCOIT/Lenacil table) and in assay [2] (OIT/Lenacil table) was 5000 ppm in each case.
